Results on one compound are retold here after US20240261224A1, “FORMULATION OF A PAN-JAK INHIBITOR” (KINASET THERAPEUTICS, INC., priority 2022, published 2024).

Series [1] in a line: 13-week inhalation toxicology study, rat model. Format: in vivo. The note with it: in vivo, inhaled or intranasal, rat; for AUC(0-t): AUC0-24. As for the experimental part:
(§1) Lactose/MgSt-based formulations of Compound I were evaluated during a 13-week inhalation toxicology study using a rat model.
(§2) The NOAEL was assigned to the highest dose study (11.9 mg/kg/day).

For another series, the system named is rat. The series can be described thus: 13-week inhalation toxicology study, rat model. Format: in vivo. The note with it: for AUC0-24: rat, in vivo, inhaled or intranasal. As for the experimental part: as §1, §2
Another series deals with T1, JAK3 (Homo sapiens, UniProt P52333).
T1 sequence (P52333 1-1124): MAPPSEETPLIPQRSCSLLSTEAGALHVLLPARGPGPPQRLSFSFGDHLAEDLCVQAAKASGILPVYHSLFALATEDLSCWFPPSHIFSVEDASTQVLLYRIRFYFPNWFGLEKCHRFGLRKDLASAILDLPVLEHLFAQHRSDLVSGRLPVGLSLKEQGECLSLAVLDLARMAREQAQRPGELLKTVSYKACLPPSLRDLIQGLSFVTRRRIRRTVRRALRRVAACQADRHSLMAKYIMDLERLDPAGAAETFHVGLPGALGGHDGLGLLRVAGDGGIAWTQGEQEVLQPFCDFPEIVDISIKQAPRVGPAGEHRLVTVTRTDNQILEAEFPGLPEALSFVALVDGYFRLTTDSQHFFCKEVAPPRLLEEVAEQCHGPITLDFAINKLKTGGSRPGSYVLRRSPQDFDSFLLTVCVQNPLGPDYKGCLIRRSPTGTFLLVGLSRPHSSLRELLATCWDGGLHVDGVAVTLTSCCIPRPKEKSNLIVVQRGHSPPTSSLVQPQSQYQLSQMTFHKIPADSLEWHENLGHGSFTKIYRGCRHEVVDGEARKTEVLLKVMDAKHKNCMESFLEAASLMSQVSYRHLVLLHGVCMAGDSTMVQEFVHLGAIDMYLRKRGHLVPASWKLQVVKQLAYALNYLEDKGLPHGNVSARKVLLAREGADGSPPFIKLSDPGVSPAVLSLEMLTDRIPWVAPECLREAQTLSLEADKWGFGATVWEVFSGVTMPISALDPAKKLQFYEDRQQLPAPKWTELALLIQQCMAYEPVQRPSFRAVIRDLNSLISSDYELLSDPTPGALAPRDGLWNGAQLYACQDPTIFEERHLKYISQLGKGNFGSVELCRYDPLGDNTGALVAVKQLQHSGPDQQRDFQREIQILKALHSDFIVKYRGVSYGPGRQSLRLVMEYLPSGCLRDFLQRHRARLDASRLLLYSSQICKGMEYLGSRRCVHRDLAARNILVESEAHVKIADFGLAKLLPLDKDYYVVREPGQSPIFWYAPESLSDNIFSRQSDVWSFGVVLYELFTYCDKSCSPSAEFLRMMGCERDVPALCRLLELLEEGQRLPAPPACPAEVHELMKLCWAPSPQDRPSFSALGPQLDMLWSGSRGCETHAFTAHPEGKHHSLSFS
To be noted: cited from earlier work.

The target of another series is TYK2 (Homo sapiens, UniProt P29597). The note with it: cited from earlier work.
Sequence of TYK2 (P29597 whole entry): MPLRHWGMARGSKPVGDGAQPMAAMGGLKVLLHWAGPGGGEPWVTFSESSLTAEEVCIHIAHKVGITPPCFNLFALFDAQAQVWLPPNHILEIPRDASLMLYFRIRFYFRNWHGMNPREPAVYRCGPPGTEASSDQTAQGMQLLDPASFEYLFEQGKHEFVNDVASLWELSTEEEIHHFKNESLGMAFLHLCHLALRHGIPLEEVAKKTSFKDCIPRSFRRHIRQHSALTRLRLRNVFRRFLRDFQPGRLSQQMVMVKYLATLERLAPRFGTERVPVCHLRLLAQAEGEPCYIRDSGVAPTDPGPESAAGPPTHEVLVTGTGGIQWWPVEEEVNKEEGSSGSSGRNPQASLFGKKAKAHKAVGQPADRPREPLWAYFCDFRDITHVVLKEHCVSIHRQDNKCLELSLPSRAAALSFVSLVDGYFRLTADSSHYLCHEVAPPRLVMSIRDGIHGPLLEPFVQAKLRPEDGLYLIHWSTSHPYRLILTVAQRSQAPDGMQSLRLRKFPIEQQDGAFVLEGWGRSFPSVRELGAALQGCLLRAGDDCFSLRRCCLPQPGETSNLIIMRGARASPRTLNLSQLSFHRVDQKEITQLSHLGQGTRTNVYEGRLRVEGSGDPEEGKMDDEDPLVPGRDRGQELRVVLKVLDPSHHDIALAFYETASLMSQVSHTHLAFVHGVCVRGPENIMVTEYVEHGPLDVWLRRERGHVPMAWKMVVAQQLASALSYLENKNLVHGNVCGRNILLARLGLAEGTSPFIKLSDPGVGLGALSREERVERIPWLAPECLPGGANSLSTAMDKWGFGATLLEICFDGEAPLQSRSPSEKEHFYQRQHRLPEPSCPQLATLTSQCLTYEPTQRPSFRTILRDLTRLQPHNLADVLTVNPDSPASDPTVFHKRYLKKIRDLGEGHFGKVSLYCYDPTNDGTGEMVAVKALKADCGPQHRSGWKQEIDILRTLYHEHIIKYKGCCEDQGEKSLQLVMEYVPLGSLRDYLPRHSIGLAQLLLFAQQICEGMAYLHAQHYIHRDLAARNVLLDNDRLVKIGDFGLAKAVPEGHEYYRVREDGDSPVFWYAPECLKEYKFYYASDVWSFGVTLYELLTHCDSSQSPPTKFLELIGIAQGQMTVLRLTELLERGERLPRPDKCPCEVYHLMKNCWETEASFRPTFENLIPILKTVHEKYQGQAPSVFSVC

By NOAEL is commonly meant the highest dose or exposure tested at which no adverse effect was seen. As usually defined, the AUC(0-t) is the area under the concentration-time curve up to a stated or last time point. High values mean high exposure, low ones low exposure. `Cn1c(=O)n([C@H]2CCCN(C(=O)CC#N)C2)c2nc(-c3cnn4ccccc34)ccc21` [Compound I, (S)-3-(3-(1-methyl-2-oxo-5-(pyrazolo[1,5-a]pyridine-3-yl)-1H-imidazo[4,5-b]pyridine-3(2H)-yl)piperidin-1-yl)-3-oxopropanenitrile] yielded a no-observed-adverse-effect level (NOAEL) at 13 weeks in series [1] (13-week inhalation, highest dose) of 11.9 mg/kg/day. Also, the exposure AUC(0-t) was 339 ng·h/mL in series [1] (1.3 mg/kg/day), 850 ng·h/mL in series [1] (4 mg/kg/day) and 2060 ng·h/mL in series [1] (12 mg/kg/day). In addition, the AUC0-24 was found to be 197 ng·h/mL in the series with rat (1.3 mg/kg/day), 738 ng·h/mL with rat (4 mg/kg/day) and 1950 ng·h/mL in the series on rat (12 mg/kg/day). The values for the MMAD in the series with rat (target delivered dose 1.3 mg/kg/day (low dose)), with rat (target delivered dose 4.0 mg/kg/day (mid dose)) and in the series on rat (target delivered dose 12.0 mg/kg/day (high dose)) were 1.9 μm, 2.0 μm and 2.1 μm, respectively. Besides, the “Inhibition of JAK3” value on JAK3 is listed as “potent inhibitor”. The “Inhibition of TYK2” value at TYK2 is “potent inhibitor”.
